{
  "source": "patent US20090023697A1",
  "about": "“ANALGESIA METHOD” (Vernalis (R&D) Limited, priority 2003, published 2009)",
  "key": {"[1]": {"conditions": "given ip or intragastrically; cited from earlier work"}, "[2]": {"conditions": "in vivo; cited from earlier work"}, "[3]": {"test_system": "male Wistar rats", "test": "Rotarod running test to assess sedation after neurosteroid sustained release emulsions", "conditions": "sc sustained release emulsion; for sedation (rotarod run time) at 1 hour after injection: normal run time 120 s"}, "[4]": {"test_system": "rats", "test": "Tail flick latency (TFL) response to ip morphine: effect of alphadolone on established morphine tolerance", "excerpt": "An observer unaware of the nature of this treatment, saline or alphadolone, made the TFL measurements.\nThe TFL responses on day 1 and day 3 were combined for drug treatment and expressed as means SEM. These values were compared to see if tolerance occurred and whether co administration of alphadolone caused reversal of the tolerance effect."}, "[5]": {"conditions": "alphadolone alone; cited from earlier work"}, "[6]": {"conditions": "dose of alphadolone used for tolerance reversal (10 mg/kg); cited from earlier work"}, "[7]": {"test_system": "male Wistar rats", "test": "Tail flick latency (TFL) response to ip morphine: effect of sustained release neurosteroid on development of morphine tolerance"}, "[8]": {"test_system": "rats", "test": "Electrical current threshold (ECT) test of nociceptive threshold in the tail after alphadolone sustained release emulsion", "conditions": "250 mg/kg alphadolone acetate sc in slow release emulsion"}, "[9]": {"test_system": "mice", "conditions": "cited from earlier work"}, "[10]": {"conditions": "alphadolone 250 mg/kg, alphaxalone 80 mg/kg"}},
  "data": [
    {"compound": "CC(=O)[C@H]1CC[C@H]2[C@@H]3CC[C@H]4C[C@H](O)CC[C@]4(C)[C@H]3C(=O)C[C@]12C", "note": "[alphaxalone]", "values": [
      {"measurement": "antinociception", "setting": "[1]", "result": "no antinociception"},
      {"measurement": "sedation", "setting": "[1]", "result": "causes sedation"},
      {"measurement": "potency as an anaesthetic compared with alphadolone", "setting": "[2]", "result": "three"},
      {"measurement": "sedation (rotarod run time) at 1 hour after injection", "setting": "[3]; [10]", "result": "significantly greater than that caused by alphadolone"},
      {"measurement": "duration of significant sedative effects (rotarod)", "setting": "[3]; alphaxalone 80 mg/kg", "result": "four"}
    ]},
    {"compound": "CN1CC[C@]23c4c5ccc(O)c4O[C@H]2[C@@H](O)C=C[C@H]3[C@H]1C5", "note": "[morphine]", "values": [
      {"measurement": "tail flick latency response, day 1 (pre tolerance)", "setting": "[4]; immediate release morphine 6.4 mg/kg ip, both groups, n=9", "result": "approximately 80 % MPE"}
    ]},
    {"compound": "CC(=O)OCC(=O)[C@H]1CC[C@H]2[C@@H]3CC[C@H]4C[C@H](O)CC[C@]4(C)[C@H]3C(=O)C[C@]12C", "note": "[alphadolone, 21-acetoxy-3alpha-hydroxy-5alpha-pregnane-11, 20-dione]", "values": [
      {"measurement": "antinociception", "setting": "[1]", "result": "causes antinociceptive effects"},
      {"measurement": "sedation", "setting": "[1]", "result": "without sedation"},
      {"measurement": "antinociceptive effects in the TFL test", "setting": "[5]", "result": "no antinociceptive effects"},
      {"measurement": "potentiation of morphine TFL effects", "setting": "[6]", "result": "potentiate morphine TFL effects"},
      {"measurement": "TFL response, day 3 (post tolerance), morphine co administered with alphadolone", "setting": "[4]; 6.4 mg/kg morphine ip plus alphadolone 10 mg/kg after two days morphine emulsion, mean SEM, n=9", "result": "78.6 9.8 % MPE"},
      {"measurement": "day 3 response compared with day 1 response before tolerance", "setting": "[4]; morphine 6.4 mg/kg ip co administered with alphadolone 10 mg/kg, p>0.05 one way ANOVA", "result": "equal to that produced on day 1"},
      {"measurement": "sedation (rotarod run time) later than 1 hour after injection", "setting": "[3]; alphadolone 250 mg/kg", "result": "no sedation"},
      {"measurement": "sedation (rotarod run time) at 1 hour after injection", "setting": "[3]; [10]", "result": "small but significant amount of sedation"},
      {"measurement": "sedation observed during the course of the tolerance experiment", "setting": "[7]; sc emulsions with morphine emulsion, alphadolone 250 mg/kg/day, alphaxalone 80 mg/kg/day", "result": "no overt signs of sedation"},
      {"measurement": "post treatment TFL values (6.4 mg/kg ip morphine, day 3) compared with vehicle treated controls", "setting": "[7]; two days sc morphine emulsion plus sc emulsion of alphadolone 250 mg/kg/day or alphaxalone 80 mg/kg/day, Students t test", "result": "statistically significant difference"},
      {"measurement": "loss of consciousness / looking sedated after the injection", "setting": "[8]", "result": "did not cause any rat to lose consciousness or in any way to look sedated"},
      {"measurement": "time by which nociceptive threshold (ECT) was significantly increased", "setting": "[8]; n=10", "result": "one"},
      {"measurement": "time nociceptive threshold (ECT) remained elevated", "setting": "[8]; n=10, readings up to 44 hours", "result": 24, "unit": "h"}
    ]},
    {"compound": "CC(=O)[C@H]1CC[C@H]2[C@@H]3CCC4=CC(=O)CC[C@]4(C)[C@H]3CC[C@]12C", "note": "[progesterone]", "values": [
      {"measurement": "prevention of morphine tolerance", "setting": "[9]", "result": "positive results"}
    ]},
    {"compound": "CC(=O)C1CCC2C3CC=C4CC(OS(=O)(=O)O)CCC4(C)C3CCC12C", "note": "(centres unmarked) [pregnenolone sulphate]", "values": [
      {"measurement": "prevention of morphine tolerance", "setting": "[9]", "result": "positive results"}
    ]},
    {"compound": "CC(=O)[C@H]1CC[C@H]2[C@@H]3CC[C@H]4C[C@H](O)CC[C@]4(C)[C@H]3CC[C@]12C", "note": "[allopregnanolone]", "values": [
      {"measurement": "prevention of morphine tolerance", "setting": "[9]", "result": "positive results"}
    ]},
    {"compound": "dehydroepiandrosterone sulphate", "values": [
      {"measurement": "prevention of morphine tolerance", "setting": "[9]", "result": "positive results"}
    ]}
  ]
}
